The test system of assay [1] is Cavia porcellus. Put plainly: Antitussive activity in ip dosed Dunkin-Hartley guinea pig assessed as inhibition of citric acid-induced cough administered 30 mins before citric acid challenge. The format is functional.
Assay [2] deals with Cavia porcellus. The assay can be described thus: Antitussive activity in Dunkin-Hartley guinea pig assessed as inhibition of citric acid-induced cough at 100 mg/kg, ip administered 30 mins before citric acid challenge. The format is functional. The following applies: route intraperitoneal.

In general, ED50 refers to the dose at which the effect has come halfway, by size or by number of responders. As for `CC[C@@H]1[C@H]2CCCCN3[C@H]2[C@@H](C[C@H]3[C@@H]2C[C@H](C)C(=O)O2)[C@H]2[C@@H]1OC(=O)[C@H]2C` [NEOTUBEROSTEMONINE], the median effective dose (ED50) in assay [1] turned out to be 66 µmol/kg.

For orientation: inhibition in vivo means the drop in the measured response relative to a control, in per cent. With `CC[C@H]1[C@@H]2c3ccc([C@@H]4C[C@H](C)C(=O)O4)n3CCC[C@H]2O[C@]12C=C(C)C(=O)O2` [BISDEHYDROSTEMONININE], in assay [1], the Activity entry is “Dose-dependent effect” and the median effective dose (ED50) came to 188 µmol/kg. For the same compound, in assay [2], the inhibition in vivo at 100 mg/kg was determined as 90%.

Values taken from ChEMBL document CHEMBL1142605, “Stemoninines from the roots of Stemona tuberosa” (2006).
